Measured values published in publication PMC4738272 (Scientific Reports, 2016).
“Also recorded” adds a separate entry of the source. Read-outs that look alike come from different tables or passages of the source.

How the values were obtained:
[1] = system: Human Skeletal Myofibers; test: Myotube stimulated contraction (binary: contracting or not); type: cell-based; conditions: 4-organ co-culture under flow, 48 h drug treatment, day 7, broad-field electrical stimulation, DOX 5 μM, ATR 100 μM, VPA 2 mM, APAP 5 mM, AMAP 5 mM
Method: Myotube contraction in coverslips was evaluated after the co-culture was finalized. Individual surfaces were evaluated as previously reported in the group. Drugs effects were quantify in a binary code mode, cells were or were not contracting.

[2] = system: HepG2/C3A; test: Human Serum Albumin quantification (ELISA), liver fraction of 4-organ system; type: cell-based; conditions: 4-organ co-culture under flow, 48 h drug treatment, vs control; DOX 5 μM, ATR 100 μM, VPA 2 mM, APAP 5 mM, AMAP 5 mM
Method: Human Serum Albumin (HSA) production from the liver fraction was tracked throughout the co-culture, by measuring the HSA concentration in the supernatant of the culture as it represents liver protein anabolism. Samples were collected from the exchanged medium (1.2 mL) and stored at −20 °C until analysis. One freeze-thaw cycle occurred before samples were analyzed following manufacturers’ instructions provided in the ELISA Starter Accessory Kit (Bethyl Laboratories Inc, Cat #: E101). Samples were diluted as necessary in sample conjugate/diluent buffer to ensure readings measured within the range of the standard curve. The standard curve was prepared by serial dilutions of human reference serum in sample conjugate/diluent buffer (0–1600 ng/ml).
Final HSA concentrations were calculated in an excel file by first removing the average OD reading measured for blanks from average sample and standard OD readings. Concentrations of standard dilutions were plotted against average OD values measured in XY scatter plots. A standard curve was created by adding an order of 2 polynomial trendline to XY scatter plots and selecting the option to display the equation of the trendline, as well as the R^2 value, on each scatter plot (for ease of analysis HSA sigmoidal curves were split into 3 standard curves with HSA concentration ranges of 0–200 ng/ml, 200–800 ng/ml and […]). Quadratic equations were rearranged to make X (sample HSA concentration) the unknown variant. Y values (OD values) and a/b/c constants generated from trendline equations were inputted into rearranged quadratic equations per assay. HSA concentrations calculated were corrected accordingly for any differences in culture final volumes, sample dilutions during assays and cells number.

[3] = system: Liver; design: method as in Literature; conditions: general toxic effects reported in the literature; ref Literature; cited from earlier work
[4] = system: iPSc differentiated Cardiomyocytes; test: MTT viability of cardiac module in 4-organ system; conditions: 4-organ co-culture under flow, serum-free medium, 48 h drug treatment, day 7, vs control, DOX 5 μM, ATR 100 μM, VPA 2 mM, APAP 5 mM, AMAP 5 mM
Excerpt: (§1) The four organ in vitro systems were assembled, on day 0, by placing the corresponding surfaces cell side up in a specific chamber of the housing (liver coverslip into chamber 1, cardiac coverslips and cantilevers into chambers 2 and 4, muscle coverslips into chamber 5, and neuron coverslips into chamber 3 and they were then topped with the serum-free co-culture medium (1X Neurobasal Medium, 1X B27, 1X AB/AM, 1X Glutamax (all from Life Technologies)) before locking the system. Right after assembling, the medium was completely replaced with 4 mL of the co-culture defined serum-free medium and the systems placed on a rocking platform inside an incubator. Platforms were checked every day by inspecting for expected cell morphology inside the system and by replacing medium (1.2 mL total volume) from the two reservoirs (30% of the total volume was replaced) with fresh medium. Drug incubation was initiated on day 5 of the co-culture by addition of the drug through the reservoir closer to the liver chamber (no. 1), allowing a first contact of the drug with the liver. 20 μL of the drug stock solution (or vehicle) to achieve a working concentration in 4 mL of total volume in the platform was utilized. On day 6, after 24 hours of drug incubation, 6 μL of the drug stock solution (or vehicle) was added to the fresh medium exchange volume (1.2 mL). After 48 hour of drug incubation, on day 7, systems were disassembled to test organ functionality that same day. For mono-culture conditions, surfaces remained in a 12-well plated with 1 mL of the co-culture defined serum-free medium maintained by daily replacement of half volume.
(§2) Seven days after the initiation of the co-culture, viability of each organ chamber, except for neurons, was evaluated through an MTT assay. […] Cell viability was measured at 570 nm in a Synergy HT plate reader and KC4 software. The results were expressed as the percentage of cell survival relative to the control (untreated or incubated with vehicle). The neuronal fraction viability was evaluated through morphological analysis throughout the co-culture experiment as the final coverslips were used for patch-clamp electrophysiology. Phase images (10X) where obtained every day of the co-culture. Neuronal viability was evaluated by cell morphology integrity and by cell count from day 1 to day 14.

[5] = system: Neurons; design: method as in Literature; conditions: general toxic effects reported in the literature; ref Literature; cited from earlier work
[6] = system: Cardiomyocytes; design: method as in Literature; conditions: general toxic effects reported in the literature; ref Literature; cited from earlier work
[7] = system: iPSc differentiated Cardiomyocytes; test: Cardiac beating frequency from video recordings; type: cell-based, human; conditions: 4-organ co-culture under flow, 48 h drug treatment, day 7, vs control; ATR 100 μM, VPA 2 mM, APAP 5 mM
Method: Seven or fourteen days after the co-culture, cardiac beating frequency was quantified from video recordings of three different areas of each of the cMEA surfaces, where the cardiomyocytes culture where located. Surfaces were located in a 37 °C bath platform containing co-culture medium with 50 mM HEPES on the stage of a Zeiss Axioscope 2FS upright microscope. Beats were counted in a period of 10 s, and the average number of 3 values was obtained. Drug effect was plotted as percentage of change compared to the control conditions.

[8] = system: neurons; test: Neuron electrophysiology recording (patch clamp); type: cell-based, human; conditions: 4-organ co-culture under flow, 48 h drug treatment, day 7, vs control, DOX 5 μM, ATR 100 μM, APAP 5 mM
Excerpt: Electrophysiological properties of neuron cultures where recorded on the last day of co-culture following a previously described method. Values of firing, repetitive firing, spontaneous firing, inward sodium current, outward potassium current, action potential peak voltage and the resting membrane potential, characterized the mature functionality of neurons in the in vitro system. Drug alterations of the neuronal electrophysiology are discussed in this manuscript.

[9] = system: Human Skeletal Myofibers; test: MTT viability of skeletal muscle module in 4-organ system; conditions: 4-organ co-culture under flow, serum-free medium, 48 h drug treatment, day 7, vs control, DOX 5 μM, ATR 100 μM, VPA 2 mM, APAP 5 mM, AMAP 5 mM
Excerpt: as §1, §2

[10] = system: neurons; test: Neuronal viability by morphological analysis and cell count in 4-organ system; conditions: 4-organ co-culture under flow, serum-free medium, 48 h drug treatment, day 7, vs control; DOX 5 μM, ATR 100 μM, VPA 2 mM, APAP 5 mM, AMAP 5 mM
Excerpt: as §1, §2

[11] = system: Muscle; design: method as in Literature; conditions: general toxic effects reported in the literature; ref Literature; cited from earlier work
[12] = cited from earlier work; for Toxic plasma concentration: humans
[13] = system: HepG2/C3A; test: Urea quantification, liver fraction of 4-organ system; type: cell-based, human; conditions: 4-organ co-culture under flow, 48 h drug treatment, vs control; DOX 5 μM, ATR 100 μM, APAP 5 mM, AMAP 5 mM
[14] = system: HepG2; design: method as in PMID 19107278; conditions: microfluidic system, double the concentration of APAP of this manuscript; cited from earlier work

## CC(=O)Nc1ccc(O)cc1 [Acetaminophen]
[1]
  Skeletal muscle loss of contractile ability (share of cultures in which contraction ceased): 37% loss of contractile ability
[1]; listed as APAP
  Skeletal muscle loss of contractile ability (share of cultures in which contraction ceased): 37%
[2]
  HSA (albumin) production, increase: not affected
[3]
  Drug effects on cell functionality, Liver, Literature: Compromised
  Drug effects on cell viability, Liver, Literature: Toxicity reported
[4]
  Cardiomyocyte viability, loss: Toxicity not observed
[4]; listed as APAP
  Cardiomyocyte viability, loss: not significantly affected; also recorded: preserved (even improved)
[5]
  Drug effects on cell functionality, Neurons, Literature: Toxicity not reported
  Drug effects on cell viability, Neurons, Literature: Toxicity not reported
[6]
  Drug effects on cell functionality, Cardiomyocytes, Literature: Cardio-protective effect
  Drug effects on cell viability, Cardiomyocytes, Literature: Cardio-protective effect
[7]
  Cardiomyocyte beating rate (beat frequency), increase: 27 ± 9% increase in beating frequency
[8]
  Neuronal ion currents and firing of stimulated action potentials: no changes
[8]; AMAP 5 mM
  Neuronal repetitive and spontaneous firing ability: loss and lost
[8]; VPA 2 mM, AMAP 5 mM
  Neuronal electrophysiology, overall effect: Electrophysiology affected
[9]
  Skeletal muscle viability, loss: Toxicity not observed
[9]; listed as APAP
  Skeletal muscle viability, loss: not significantly affected
[10]
  Neuronal cell viability, loss (cell loss by morphology/cell count): 50 ± 18% loss of cell viability
[11]
  Drug effects on cell functionality, Muscle, Literature: Myo-protective effect
  Drug effects on cell viability, Muscle, Literature: Myo-protective effect
[12]; 500–1000 mg orally three times a day
  Therapeutic, and safe, plasma concentration: low micromolar range
[12]; after 24 hours
  Toxic plasma concentration: less than 50 μM
[12]; first two hours after ingestion
  Toxic plasma concentration: around 2 mM
[13]
  Urea production, increase: 52 ± 13%
[14]
  Reduction in HepG2 viability: 60%
